The data set in a line: Zeta potential measurement. The note with it: NanoZS, solutions in pH 7.4 phosphate buffer. It is filed as physicochemical.

For the compound `C[C@]12CC[C@H](O)C[C@H]1CC[C@@H]1[C@@H]2CC[C@]2(C)[C@@H](c3ccc(=O)oc3)CC[C@]12O` [bufalin], the zeta potential was −0.55 mV.
